Measured values taken from paper PMC11859726, “HDAC/σ1R Dual-Ligand as a Targeted Melanoma Therapeutic” (Pharmaceuticals, 2025).

Key:
[1] = system: HDAC (total HDAC activity, HCT116 cell lysates); assay: HDAC activity colorimetric assay in HCT116 cell lysates; format: biochemical, human
Protocol: (§1) HDAC activity was determined in the indicated cell lysates (50 µg proteins; 37 °C) using the non-selective HDAC Activity Colorimetric Assay kit (BioVision, Cambridge, UK), following the procedures described in previous studies. Samples were read at 405 nm with a microplate reader (Multiskan GO (Thermo Fisher Scientific, Waltham, MA, USA)), and the HDAC activity was expressed as the relative optical density (O.D.) values.

WS1 cells = assay: Cell proliferation, normal WS1 fibroblasts; format: cell-based; settings: Homo sapiens; WS1 (Normal Skin Fibroblast); 48 h; mean ± SD; read-out: Antiproliferative IC50
Protocol: (§2) Cells were seeded in 96-well plates at a cell-specific density, following quantification of cell numbers on counting chambers after trypsinization and staining with trypan blue. After seeding (72 h), at a cell confluence of ~50%, the medium was removed, and treatments were started with fresh media. Treatments, carried out in quadruplicate, lasted for 48 h. Then, the cells were fixed with 4% paraformaldehyde in PBS for 20 min and, after washing, stained with either 1% crystal violet in water or an acridine orange solution (50 µg/mL) for an additional 20 min. At the end of the incubations, cells were washed (3 times) with 100 μL/well of bidistilled water. Finally, for crystal violet assays, 100 μL of 10% acetic acid was added to each well, and the absorbance (λ = 590 nm) was measured with a Synergy HTX Bioteck spectrophotometer (BioSPX, Beersel, Belgium). For acridine orange assays, cell staining was evaluated by measuring the fluorescence (excitation 485/20 nm, emission 528/20 nm) with the Synergy HTX Bioteck reader.

MRC-5 cells = assay: Cell proliferation, normal MRC-5 fibroblasts; format: cell-based; settings: Homo sapiens, MRC5; MRC-5 (Normal Lung Fibroblast); 48 h; mean ± SD; read-out: Antiproliferative IC50
Protocol: as §2

UM 92-1 cells [2] = assay: Cell proliferation, UM 92-1 cells; format: cell-based, human
Protocol: as §2

endothelial C166 cells = assay: Tube formation assay, VEGF-A-stimulated endothelial cells; format: cell-based, mouse
Protocol: The tube formation assay using mouse endothelial […] cells was analyzed employing Matrigel (BD, Bedford, MA, USA), as previously described. Briefly, 96-well plates coated with Matrigel (50 μL/well) were filled with 100 μL medium/well and maintained overnight. Endothelial cells were seeded at 2.5 × 10^4 cells/well and incubated (for 3 h) with VEGF-A (80 ng/mL), in the presence of the indicated treatments. Then, capillary-like structures were imaged (×4 magnification) with a CCD camera connected with an inverted EVOS microscope. Finally, ImageJ software (NIH, Bethesda, MD, USA) was employed to quantify tube formations.

A549 cells = assay: Cell proliferation, A549 cells; format: cell-based; settings: Homo sapiens; A549 (Lung Carcinoma); 48 h; mean ± SD; read-out: Antiproliferative IC50
Protocol: as §2

T84 cells = assay: Cell proliferation, T84 cells; format: cell-based, human
Protocol: as §2

MCF7 cells = assay: Tumor cell spreading assay, MCF7 cells; format: cell-based, human; settings: 100 nM, 1 h
Protocol: (§3) Adherent 92-1 and MCF-7 cells were harvested using 0.05% Trypsin-EDTA and plated in 6-well plates. After 1 h incubations with the indicated treatments, the number of cells that formed, or not, distinct protrusions (lamellipodia, filopodia) were scored with an inverted microscope (20×, EVOS cell imaging system, Thermo Fisher, Waltham, MA, USA).

UM 92-1 cells [3] = assay: Tumor cell spreading assay, 92-1 cells; format: cell-based, human; settings: 1 h; for cells flat, with protrusions, Exp 1 (%) / cells flat, with protrusions, Exp 2 (%) / cells flat, with protrusions, Exp 3 (%) / rounded cells, Exp 1 (%) / rounded cells, Exp 2 (%) / rounded cells, Exp 3 (%): 92-1, % of total cell population
Protocol: as §3

786-O cells = assay: Cell proliferation, 786-O cells; format: cell-based; settings: Homo sapiens, 786-0; 786-O (Renal Adenocarcinoma); 48 h; mean ± SD; read-out: Antiproliferative IC50
Protocol: as §2

[4] = system: HDAC enzymatic activities (MCF7, PC3, AGS cell lysates); assay: HDAC activity colorimetric assay in other cancer cell lysates (MCF7, PC3, AGS); format: biochemical, human; settings: other cancer cell types (MCF7, PC3, AGS lysates) vs control
Protocol: as §1

σ1R = target: T1, σ1R (Cavia porcellus, UniProt Q60492); assay: σ1R radioligand binding assay ([3H]-(+)-pentazocine); set-up: species or system guinea pig
T1 construct: using guinea pig brain membranes and appropriate radioligands; from tissue; host or cells: guinea pig brain membranes
Protocol: (§4) Radioactivity was determined with a Beckman LS6500 scintillation counter. Inhibition constants (Ki values) were calculated with the EBDA/LIGAND program (Elsevier/Biosoft).

σ2R = target: T2, σ2R (Cavia porcellus, UniProt H0V073); assay: σ2R radioligand binding assay ([3H]-DTG); set-up: species or system guinea pig
T2 construct: using guinea pig brain membranes and appropriate radioligands; from tissue; host or cells: guinea pig brain membranes
T2 sequence (H0V073 1-176): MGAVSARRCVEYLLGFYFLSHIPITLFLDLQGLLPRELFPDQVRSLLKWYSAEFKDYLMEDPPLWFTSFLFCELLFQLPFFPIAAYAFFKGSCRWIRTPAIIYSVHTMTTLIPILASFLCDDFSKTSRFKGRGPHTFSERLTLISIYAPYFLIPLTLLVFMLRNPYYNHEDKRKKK
Protocol: as §4

A375 cells = assay: Cell proliferation, CM A375 cells; format: cell-based, human
Protocol: as §2

[5] = MCF-7, % of total cell population

T1 sequence (Q60492 whole entry): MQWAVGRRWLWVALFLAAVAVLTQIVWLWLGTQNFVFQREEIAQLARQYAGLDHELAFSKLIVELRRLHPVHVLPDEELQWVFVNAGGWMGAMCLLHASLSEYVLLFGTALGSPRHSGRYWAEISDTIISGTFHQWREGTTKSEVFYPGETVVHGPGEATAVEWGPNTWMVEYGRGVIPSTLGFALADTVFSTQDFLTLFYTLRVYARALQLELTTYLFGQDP

## Cl.O=C(/C=C/c1ccc(CN2CCC(O)(c3ccc(Cl)cc3)CC2)cc1)NO [5c, (E)-4-(4-chlorophenyl)-4-hydroxy-1-{4-[3-(hydroxyamino)-3-oxoprop-1-en-1-yl]benzyl}piperidin-1-ium chloride]
[1]
  HDAC inhibition with respect to the vehicle control: ~ 80%
[1]; 0–20 µM, read-out: IC50 on HDAC-dependent catalytic activity
  IC50: 14.6 nM
WS1 cells
  IC50: 1160 ± 187 nM
MRC-5 cells
  IC50: 157 ± 55.2 nM
UM 92-1 cells [2]; 92-1 vs MRC-5 IC50
  superior antiproliferative potency in UM cells compared to normal lung fibroblasts: ~ 5 fold
UM 92-1 cells [2]; Homo sapiens, 92.1 (Uveal Melanoma), 48 h, mean ± SD, read-out: Antiproliferative IC50
  IC50: 24.8 ± 5.8 nM
Endothelial C166 cells; 30 nM, 3 h, VEGF-A 80 ng/mL
  effect on VEGF-A-stimulated angiogenesis: without effects
Endothelial C166 cells; 5 µM plus σ1R agonist pentazocine 2 μM, combined score
  antiangiogenic effect in the presence of pentazocine: completely prevented
Endothelial C166 cells; 5 µM plus σ2R antagonist AC927 2 μM, combined score
  antiangiogenic effect in the presence of AC927: to a significantly lesser extent than pentazocine
Endothelial C166 cells; 5 µM, 3 h, VEGF-A 80 ng/mL
  effect on VEGF-A-stimulated angiogenesis (tube lengths, mesh areas, node numbers; words): abrogated
A549 cells
  IC50: 118 ± 13 nM
T84 cells; Homo sapiens, T84 (Colorectal Carcinoma), 48 h, mean ± SD, read-out: Antiproliferative IC50
  IC50: 1200 ± 381 nM
T84 cells; colon cancer T84 cells
  sensitivity to antitumor actions: resistant
MCF7 cells; MCF7 cells (low σ1R)
  inhibition of cell spreading: failed to suppress
MCF7 cells; [5]
  cells flat, with protrusions, Exp 1 (%): 47,13%
  cells flat, with protrusions, Exp 2 (%): 44,67%
  cells flat, with protrusions, Exp 3 (%): 39,07%
  rounded cells, Exp 1 (%): 52,87%
  rounded cells, Exp 2 (%): 55,33%
  rounded cells, Exp 3 (%): 60,93%
UM 92-1 cells [3]; 100 nM
  cells flat, with protrusions, Exp 1 (%): 37,23%
  cells flat, with protrusions, Exp 2 (%): 27,77%
  cells flat, with protrusions, Exp 3 (%): 37,27%
  rounded cells, Exp 1 (%): 62,77%
  rounded cells, Exp 2 (%): 72,23%
  rounded cells, Exp 3 (%): 62,73%
UM 92-1 cells [3]; 5 µM
  cells flat, with protrusions, Exp 1 (%): 28,48%
  cells flat, with protrusions, Exp 2 (%): 17,22%
  cells flat, with protrusions, Exp 3 (%): 33,05%
  rounded cells, Exp 1 (%): 71,52%
  rounded cells, Exp 2 (%): 82,78%
  rounded cells, Exp 3 (%): 66,95%
UM 92-1 cells [3]; UM 92-1 cells, from 100 nM
  inhibition of cell spreading: significant inhibition
786-O cells
  IC50: 150 ± 24 nM
[4]
  suppression of resident HDAC enzymatic activities: significant suppression
σ1R
  Ki: 19 ± 1.6 nM
σ1R; σ1R vs σ2R Ki
  fold higher affinity for σ1R than σ2R: > 100 fold
σ2R
  Ki: 2050 ± 737 nM
A375 cells; CM A375, lung A549 and renal 786-O vs WS1
  shift to the left in antiproliferative dose–response curves compared to normal skin fibroblasts: 8–10 fold
A375 cells; Homo sapiens, A-375, A375 (Cutaneous Melanoma), 48 h, mean ± SD, read-out: Antiproliferative IC50
  IC50: 91.5 ± 11.4 nM

## c1ccc(CCN2CCCCC2)cc1 [AC927, reference compound]
UM 92-1 cells [2]; UM 92-1 cells, 3c 30 and 100 nM, pentazocine 2 μM, AC927 2 μM, Figure 3a
  effect on proliferation: did not alter
A375 cells; CM A375 cells, 3c 90 and 200 nM, pentazocine 2 μM, AC927 2 μM, Figure 3b
  effect on proliferation: did not alter
